We go through four compounds from patent EP0359821A1, “METHOD OF STERILIZING PLANT ANTHERS” (priority 1988, dated 1989).

SMILES strings stand for the structures.

One data set in a line: in vivo. To be noted: rat.
Data set [1] concerns Winterweizens Sorte Mironovskaya 808. The data set is described as follows: Field trial of gametocidal activity (anther sterilisation), winter wheat. The settings on record: 2% aqueous emulsion, 20 kg/ha. The format is in vivo, Weizen.
Data set [2] deals with Hirse Sorte Mironovskoe 94. In words: Field trial of gametocidal activity, millet Mironovskoe 94. Format: in vivo. To be noted: 1% aqueous emulsion, 10 kg/ha.
Data set [3] concerns Diploider Roggen Sorte Chulpan. In words: Field trial of gametocidal activity, diploid rye Chulpan. Format: in vivo. The settings on record: single compounds, 1% aqueous emulsion, 10 kg/ha; for Anzahl von Körnern der Ähre bei freier Bestäubung / Anzahl von Körnern der Ähre im Isolator: Chulpan; for Anzahl von Körnern der Ähre bei freier Bestäubung / Anzahl von Körnern der Ähre im Isolator / pest or weed control at 10000 g/ha: V. or VI. period; for pest or weed control at 10000 g/ha: read-out: Prozentsatz der Sterilität, Chulpan; for response vs control in vivo at 10000 g/ha: read-out: Prozentsatz des Ansetzens bei freier Bestäubung, Chulpan, control = 100. The text has this: Bei Weizen und Tritikale werden Einzelisolatoren verwendet.
Pflanzen von diploidem Roggen Sorte Chulpan werden in der V. oder VI.
Der Verbrauch an Sterilisationsmitteln beträgt 10 kg/ha.

A further data set has as its system Sonnenblume Linie VK 119. In words: Field trial of pollen sterilisation, sunflower line VK 119. To be noted: 0,2% aqueous emulsion, 1,2 kg/ha.
For data set [4], the system named is Diploider Roggen Sorte Gibrid 340/65. In words: Field trial of gametocidal activity, diploid rye Gibrid 340/65. To be noted: Gibrid 340/65 (text: 312/65), 1% aqueous emulsion, 10 kg/ha.
Data set [5] concerns Sonnenblume Sorte Peredovik. The data set is described as follows: Field trial of pollen sterilisation, sunflower Peredovik. The format is in vivo. The settings on record: 0,2% aqueous emulsion, 1,2 kg/ke (so in the source). The text has this:
Pflanzen der Sonnenblume Sorte Peredovik werden in der V. oder VI.
Der Verbrauch an Sterilisationsmittel beträgt 1,2 kg/ke.

Data set [6] concerns Sommerweizen Sorte Moskovskaya 35. In words: Field trial of gametocidal activity, spring wheat. Format: in vivo, Weizen. The settings on record: 1% aqueous emulsion.
The subject of data set [7] is Hirse Sorte K-9693 Kormovoe 1. In words: Field trial of gametocidal activity, millet K-9693 Kormovoe 1. To be noted: 1% aqueous emulsion, 10 kg/ha.
Data set [8] can be described thus: Toxicity in animal test (result in words).
Data set [9] deals with Tetraploider Roggen Sorte Jubileinaya. The data set is described as follows: Field trial of gametocidal activity, tetraploid rye Jubileinaya. To be noted: 1% aqueous emulsion, 10 kg/ha.
Where [10] appears, read: V. or VI. period of organogenesis.
Where [11] appears, read: control = 100, read-out: Prozentsatz des Ansetzens bei freier Bestäubung.

With `CC(C)OC(=S)S` [Beispiel 5, Kaliumisopropylxanthogenat], the LD50 in “in vivo” is 760 mg/kg. Further, the “Anzahl von Körnern der Ähre bei freier Bestäubung” value in data set [1] (setting [10]) is recorded as 35,2; in [3], 51,8; in data set [4] (V. and VI. periods), 44,8; in [6] (10 kg/ha, V. period), 24,9. For the same compound, the “Anzahl von Körnern der Ähre im Isolator” value in [1] (setting [10]) is given as 2,3; in data set [3] it was 0,3; in data set [4] (V. and VI. periods), 0,0; in data set [6] (10 kg/ha, V. period), 2,3. In addition, the pest or weed control at 20000 g/ha in data set [1] (V. or VI. period of organogenesis, read-out: Prozentsatz der Sterilität) came to 93.7%. Further, the response vs control in vivo at 20000 g/ha in [1] (setting [11]) was determined as 86.2%. Moreover, in data set [2] (V. or VI. period), the “Anzahl von Körnern der Rispe bei freier Bestäubung” value is 288,6. In addition, in data set [2] (V. or VI. period), the “Anzahl von Körnern der Rispe im Isolator” value is on record as 0,0. Also, the pest or weed control at 10000 g/ha was found to be 100% in data set [2] (V. or VI. period, read-out: Prozentsatz der Sterilität); 99.4% in data set [3]; 91.5% in data set [6] (10 kg/ha, V. period, read-out: Prozentsatz der Sterilität). Further, the response vs control in vivo at 10000 g/ha is 76% in [2] (setting [11]) and 91.4% in [3]. The “Ansetzen von Achänen bei freier Bestäubung in %” value with Sonnenblume Linie VK 119 is 85,3%. Besides, the “Ansetzen von Achänen im Isolator bei der Bestäubung mit dem Pollengemisch in %” value (with Sonnenblume Linie VK 119; in data set [5] (V. or VI. period)) was 0,0% each time. Besides, the Pollensterilität in % (in the data set on Sonnenblume Linie VK 119; in [5]) was 100% in each case. For the same compound, the “Prozentsatz der Sterilität” value in [4] (V. and VI. periods) stood at 100%. In addition, the “Prozentsatz des Ansetzens bei freier Bestäubung” value in [4] (control = 100) is on record as 83,5%. The response vs control in vivo in data set [6] (setting [11]) worked out at 90.5%.

The compound `CCCCOC(=S)S` [Beispiel 44, Kaliumbutylxanthogenat] had an LD50 in the data set “in vivo” of 760 mg/kg. Besides, in data set [3], the “Anzahl von Körnern der Ähre bei freier Bestäubung” value is 48,0, the “Anzahl von Körnern der Ähre im Isolator” value is reported as 2,6, the pest or weed control at 10000 g/ha was found to be 96.2% and the response vs control in vivo at 10000 g/ha turned out to be 84.7%. In the data set with Sonnenblume Linie VK 119, the “Ansetzen von Achänen bei freier Bestäubung in %” value was 81,5%, the “Ansetzen von Achänen im Isolator bei der Bestäubung mit dem Pollengemisch in %” value is 0,0% and the Pollensterilität in % was 100%. This compound showed a Pollensterilität in % in [5] of 100%. In addition, in [5] (V. or VI. period), the “Ansetzen von Achänen bei freier Bestäubung in %” value is listed as 85,3% and the “Ansetzen von Achänen im Isolator bei der Bestäubung mit dem Pollengemisch in %” value is on record as 0,0%. Further, in data set [7] (V. or VI. period), the “Anzahl von Körnern der Rispe bei freier Bestäubung” value is 134,6, the “Anzahl von Körnern der Rispe im Isolator” value was 0,0 and the “Prozentsatz der Sterilität” value is reported as 100%. In addition, the “Prozentsatz des Ansetzens bei freier Bestäubung” value in [7] (control = 100) is on record as 91,2%.

With `OCC(CO)(CO)CO` [Beispiel 58, Pentaerythrit], the “Toxizität im Tierversuch” value in data set [8] is recorded as “praktisch nichttoxische”. Also, in [9] (V. or VI. period), the “Anzahl von Körnern der Ähre bei freier Bestäubung” value is recorded as 45,6 and the “Anzahl von Körnern der Ähre im Isolator” value is reported as 0,4. The “Prozentsatz des Ansetzens bei freier Bestäubung” value in data set [9] (control = 100) was 94,4%.

Take `OCC(CO)(CO)CBr` [Brommethyl-tri(oxymethyl)-methan]: in [8], the “Toxizität im Tierversuch” value is “praktisch nichttoxische”.
